Like-named read-outs stand apart in the source and are kept apart here. Blank lines part the entries; values can stand above or below the molecule they belong to.
What was measured:
[1] = test system: DLD-1 BRCA2−/− cells; test: Homologous recombination synthetic lethal inhibition of proliferation, DLD-1 BRCA2-/- (Cell Titre Glo 3D); format: cell-based; conditions: for IC50: Homo sapiens
Outline: (§1)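 Isogenic DLD-1 pair; BRCA2−/− seeded 3,000 cells/mL and read day 12, wt seeded 1,500 cells/mL and read day 7. 10-pt titration (top 10 μM, 3-fold), re-fed with compound day 6, 37 °C/5% CO2. CTG 3D endpoint; IC50 at 50% signal loss.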

[2] = test system: DLD-1 cells; test: Inhibition of proliferation, DLD-1 BRCA2 wt control (Cell Titre Glo 3D); format: cell-based; conditions: for IC50: Homo sapiens
Outline: as §1

[3] = DLD-1, first proliferation column (c5), DLD-1 BRCA2-/-, read-out: POLQ PD Prolif Lumin (converted)
[4] = DLD-1, second proliferation column (c6), DLD-1 BRCA2 wt control, read-out: POLQ PD Prolif Lumin (converted)
[5] = DLD-1, 288 h, DLD-1 BRCA2−/− cells, 12 days, read-out: POLQ PD Prolif Lumin BRCA2 −/− mean pIC50 (converted)
[6] = DLD-1, 168 h, DLD-1 BRCA2 wt cells, 7 days, read-out: POLQ PD Prolif Lumin DLD1 mean pIC50 (converted)
[7] = DLD-1, proliferation, luminescence, taken as DLD-1 BRCA2-/-, read-out: POLQ PD Prolif Lumin (converted)
[8] = DLD-1, proliferation, luminescence, second Prolif column (c6), taken as DLD-1 BRCA2 wt control, read-out: POLQ PD Prolif Lumin (converted)
[9] = DLD-1, 288 h, DLD-1 BRCA2−/−, 12 days, Cell Titre Glo 3D, read-out: POLQ PD Prolif Lumin BRCA2 −/− Mean pIC50 (converted)
[10] = DLD-1, 168 h, DLD-1 (BRCA2 wt control), 7 days, Cell Titre Glo 3D, read-out: POLQ PD Prolif Lumin DLD1 Mean pIC50 (converted)
[11] = DLD-1, first proliferation column (c5), taken as DLD-1 BRCA2-/-, read-out: POLQ PD Prolif Lumin (converted)
[12] = DLD-1, second proliferation column (c6), taken as DLD-1 BRCA2 wt, read-out: POLQ PD Prolif Lumin (converted)

SMILES: CC1(Oc2ncnc3c2nc(-c2ccc(OCCN4CCNCC4)cc2C(F)(F)F)n3Cc2cc(Cl)ccn2)CC1 [Example T453, 9-((4-chloropyridin-2-yl)methyl)-6-(1-methylcyclopropoxy)-8-(4-(2-(piperazin-1-yl)ethoxy)-2-(trifluoromethyl)phenyl)-9H-purine]
IC50 [1, 7]: 251 nM
IC50 [2, 8]: > 10000 nM

SMILES: CC1(Oc2ncnc3c2nc(-c2ccc(OCCCN)cc2Cl)n3Cc2ccccc2)CC1 [Example D6, 3-(4-(9-benzyl-6-(1-methylcyclopropoxy)-9H-purin-8-yl)-3-chlorophenoxy)propan-1-amine]
IC50 [1, 5]: 631 nM
IC50 [2, 6]: 5010 nM

SMILES: CC1(Oc2ncnc3c2nc(-c2ccc(OCC(C)(C)C(=O)O)cc2Cl)n3Cc2cccc(Cl)c2)CC1 [Example 32, 3-(3-Chloro-4-(9-(3-chlorobenzyl)-6-(1-methylcyclopropoxy)-9H-purin-8-yl)phenoxy)-2,2-dimethylpropanoic acid]
IC50 [1, 9]: 631 nM
IC50 [2, 10]: > 10000 nM

SMILES: COc1ccc(Cl)cc1Cn1c(-c2cccc(OCCC(=O)O)c2Cl)nc2c(OC3(C)CC3)ncnc21 [Example 49, 3-(2-Chloro-3-(9-(5-chloro-2-methoxybenzyl)-6-(1-methylcyclopropoxy)-9H-purin-8-yl)phenoxy)propanoic acid]
IC50 [1, 9]: 15.8 nM
IC50 [2, 10]: > 10000 nM

SMILES: CC1(Oc2ncnc3c2nc(-c2ccc(OCCN4CCNCC4)cc2Cl)n3Cc2cc(Cl)c(F)cn2)CC1 [Example T346, 8-(2-chloro-4-(2-(piperazin-1-yl)ethoxy)phenyl)-9-((4-chloro-5-fluoropyridin-2-yl)methyl)-6-(1-methylcyclopropoxy)-9H-purine]
IC50 [1, 11]: 1580 nM
IC50 [2, 12]: > 10000 nM

SMILES: CC(=O)N1CCN(CCOc2ccc(-c3nc4c(OC(C)C)ncnc4n3Cc3ccccc3)c(C)c2)CC1 [Example B4, 1-(4-(2-(4-(9-benzyl-6-isopropoxy-9H-purin-8-yl)-3-methyl-phenoxy)ethyl)piperazin-1-yl)ethan-1-one]
IC50 [1, 5]: 794 nM
IC50 [2, 6]: > 10000 nM

SMILES: CC1(Oc2ncnc3c2nc(-c2ccc(CN4CCCC4)cc2Cl)n3Cc2ccccc2)CC1 [Example N5, 9-benzyl-8-(2-chloro-4-(pyrrolidin-1-ylmethyl)phenyl)-6-(1-methylcyclopropoxy)-9H-purine]
IC50 [1, 5]: 100 nM
IC50 [2, 6]: 3980 nM

SMILES: CC1(Oc2ncnc3c2nc(-c2ccc(OCCN4CCNCC4)cc2F)n3Cc2cc(Cl)ccn2)CC1 [Example T349, 9-((4-chloropyridin-2-yl)methyl)-8-(2-fluoro-4-(2-(piperazin-1-yl)ethoxy)phenyl)-6-(1-methylcyclopropoxy)-9H-purine]
IC50 [1, 11]: 631 nM
IC50 [2, 12]: > 10000 nM

SMILES: C[C@@H](CCOc1cccc(-c2nc3c(OC4(C)CC4)ncnc3n2Cc2cccc(Cl)c2)c1Cl)C(=O)O [Example T296, (S)-4-(2-chloro-3-(9-(3-chlorobenzyl)-6-(1-methylcyclopropoxy)-9H-purin-8-yl)phenoxy)-2-methylbutanoic acid]
IC50 ([1]; DLD-1, DLD-1 BRCA2-/- proliferation, column head only partly shown, read-out: POLQ PD Prolif Lumin (converted)): 25.1 nM
IC50 ([2]; DLD-1, DLD-1 BRCA2 wt control proliferation, column head only partly shown, read-out: POLQ PD Prolif Lumin (converted)): > 10000 nM

SMILES: CC1(Oc2ncnc3c2nc(-c2ccc(OCCC4(C(=O)O)CC4)cc2Cl)n3Cc2cccc(Cl)c2)CC1 [Example T407, 1-(2-(3-chloro-4-(9-(3-chlorobenzyl)-6-(1-methylcyclopropoxy)-9H-purin-8-yl)phenoxy)ethyl)cyclopropane-1-carboxylic acid]
IC50 [1, 7]: 316 nM
IC50 [2, 8]: > 10000 nM

SMILES: CC(=O)N1CCN(CCOc2ccc(-c3nc4c(OC5(C)CC5)ncnc4n3Cc3ccccc3)c(Cl)c2)CC1 [Example D5, 1-(4-(2-(4-(9-benzyl-6-(1-methylcyclopropoxy)-9H-purin-8-yl)-3-chlorophenoxy)ethyl)piperazin-1-yl)ethan-1-one]
IC50 [1, 5]: 63.1 nM
IC50 [2, 6]: 2510 nM

More lines, main results first:

IC50 [2, 4]: > 10000 nM
SMILES: Cc1ccnc(Cn2c(-c3ccc(CN(C)C)cc3Cl)nc3c(OC4(C)CC4)ncnc32)c1 [Example T136, 1-(3-chloro-4-(6-(1-methylcyclopropoxy)-9-((4-methylpyridin-2-yl)methyl)-9H-purin-8-yl)phenyl)-N,N-dimethylmethanamine]
IC50 [1, 3]: 501 nM

IC50 [2, 6]: 2510 nM
SMILES: CC1(Oc2ncnc3c2nc(-c2ccc(OC[C@H]4CCCN4)cc2Cl)n3Cc2ccccc2)CC1 [Example D25, (R)-9-benzyl-8-(2-chloro-4-(pyrrolidin-2-ylmethoxy)phenyl)-6-(1-methylcyclopropoxy)-9H-purine]
IC50 [1, 5]: 100 nM

IC50 [2, 6]: > 10000 nM
SMILES: Cc1c(OCCN2CCNCC2)cncc1-c1nc2c(OC3(C)CC3)ncnc2n1Cc1ccccc1 [Example 22, 9-Benzyl-8-(4-methyl-5-(2-(piperazin-1-yl)ethoxy)pyridin-3-yl)-6-(1-methylcyclopropoxy)-9H-purine]
IC50 [1, 5]: 631 nM

IC50 [2, 6]: > 10000 nM
SMILES: Cc1nc(Cn2c(-c3ccc(OCCN4CCNCC4)cc3Cl)nc3c(OC4(C)CC4)ncnc32)cs1 [Example K6, 4-((8-(2-chloro-4-(2-(piperazin-1-yl)ethoxy)phenyl)-6-(1-methylcyclopropoxy)-9H-purin-9-yl)methyl)-2-methylthiazole]
IC50 [1, 5]: 3980 nM

IC50 ([2]; DLD-1, DLD1 BRCA2 wt, mean, read-out: POLQ PD Prolif Lumin DLD1 mean pIC50 (converted)): > 10000 nM
SMILES: CC1(Oc2ncnc3c2nc(-c2cc(F)cc(OCCC(=O)O)c2Cl)n3Cc2cccc(Cl)c2)CC1 [Example U39, 3-(2-chloro-3-(9-(3-chlorobenzyl)-6-(1-methylcyclopropoxy)-9H-purin-8-yl)-5-fluorophenoxy)propanoic acid]
IC50 ([1]; DLD-1, DLD-1 BRCA2 −/−, mean, read-out: POLQ PD Prolif Lumin BRCA2 −/− mean pIC50 (converted)): 12.6 nM

IC50 ([2]; DLD-1, DLD1 BRCA2 wt cells, mean, read-out: POLQ PD Prolif Lumin DLD1 mean PIC50 (converted)): > 10000 nM
SMILES: Cc1cnc(Cn2c(-c3ccc(OCCN(C)C)cc3Cl)nc3c(OC4(C)CC4)ncnc32)s1 [Example T72, 2-(3-chloro-4-(6-(1-methylcyclopropoxy)-9-((5-methylthiazol-2-yl)methyl)-9H-purin-8-yl)phenoxy)-N,N-dimethylethan-1-amine]
IC50 ([1]; DLD-1, DLD-1 BRCA2 −/− cells, mean, read-out: POLQ PD Prolif Lumin BRCA2 −/− mean pIC50 (converted)): 200 nM

IC50 [2, 4]: > 10000 nM
SMILES: Cc1cncc(Cn2c(-c3ccc(OCCN4CCNCC4)cc3Cl)nc3c(OC4(C)CC4)ncnc32)c1 [Example T530, 8-(2-chloro-4-(2-(piperazin-1-yl)ethoxy)phenyl)-6-(1-methylcyclopropoxy)-9-((5-methylpyridin-3-yl)methyl)-9H-purine]
IC50 [1, 3]: 1000 nM

POLQ PD Prolif Lumin DLD1 mean pIC50 ([2]; DLD1 BRCA2 wt, mean): <5.0
SMILES: COc1ccc(F)cc1Cn1c(-c2cccc(O[C@H]3C[C@@H](C(=O)O)C3)c2Cl)nc2c(OC3(C)CC3)ncnc21 [Example U74, (1s,3s)-3-(2-chloro-3-(9-(5-fluoro-2-methoxybenzyl)-6-(1-methylcyclopropoxy)-9H-purin-8-yl)phenoxy)cyclobutane-1-carboxylic acid]
POLQ PD Prolif Lumin BRCA2 −/− mean pIC50 ([1]; DLD-1 BRCA2 −/−, mean): 7.2

IC50 [2, 12]: > 10000 nM
SMILES: CC(COc1cccc(-c2nc3c(OC4(C)CC4)ncnc3n2Cc2cccc(Cl)c2)c1Cl)CC(=O)O (single isomer, unassigned) [Example T299, 4-(2-chloro-3-(9-(3-chlorobenzyl)-6-(1-methylcyclopropoxy)-9H-purin-8-yl)phenoxy)-3-methylbutanoic acid]
IC50 [1, 11]: 79.4 nM

IC50 [2, 6]: 1260 nM
SMILES: CN1CCCC1CCOc1ccc(-c2nc3c(OC4(C)CC4)ncnc3n2Cc2ccccc2)c(Cl)c1 (racemic) [Example D2, 9-benzyl-8-(2-chloro-4-(2-(1-methylpyrrolidin-2-yl)ethoxy)phenyl)-6-(1-methylcyclopropoxy)-9H-purine]
IC50 [1, 5]: 15.8 nM

IC50 [2, 6]: 6310 nM
SMILES: N#CC1(Oc2ncnc3c2nc(-c2ccc(OCCN4CCNCC4)cc2Cl)n3Cc2cccc(Cl)c2)CC1 [Example Q5, 1-((8-(2-chloro-4-(2-(piperazin-1-yl)ethoxy)phenyl)-9-(3-chlorobenzyl)-9H-purin-6-yl)oxy)cyclopropane-1-carbonitrile]
IC50 [1, 5]: 158 nM

From US20250195530A1, “POLQ INHIBITORS” (ASTRAZENECA AB, priority 2022, published 2025)
